Measurements published in the supplement of paper PMC10307832.

Experiments:
Assay in all cases: relative viability (nuclei count vs DMSO), 5 days (fraction); higher = more cells survive
[1] = compound: Cc1ccc2nc(NCCN)c3ncc(C)n3c2c1 + CCNC(=O)c1noc(-c2cc(C(C)C)c(O)cc2O)c1-c1ccc(CN2CCOCC2)cc1 [Luminespib] (partner 0.01 µM)
Procedure, shortened: (§1)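 A single step with final 0.05% Triton X-100, 1% formaldehyde and 1 ug/ml Hoechst fixed the cells and stained nuclei 5 days after treatment. Lung cancer cell lines in 1536-well plates had been treated by pin tool the day after seeding with one drug alone or a fixed anchor-drug dose plus five library-drug doses (not always all listed) in √10 steps, and nuclei were counted on 4× images. Relative viability is the ratio of nuclei in treated wells to nuclei in vehicle wells, taken as the median of duplicate plates.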

[2] = compound: Cc1ccc2nc(NCCN)c3ncc(C)n3c2c1 + N=C(N)NC(=N)NCCc1ccccc1 [Phenformin] (partner 250 µM)
Procedure, shortened: as §1

Salubrinal + Luminespib = compound: O=C(/C=C/c1ccccc1)NC(NC(=S)Nc1cccc2cccnc12)C(Cl)(Cl)Cl [Salubrinal] + CCNC(=O)c1noc(-c2cc(C(C)C)c(O)cc2O)c1-c1ccc(CN2CCOCC2)cc1 [Luminespib] (partner 0.01 µM)
Procedure, shortened: as §1

Salubrinal + Phenformin = compound: O=C(/C=C/c1ccccc1)NC(NC(=S)Nc1cccc2cccnc12)C(Cl)(Cl)Cl [Salubrinal] + N=C(N)NC(=N)NCCc1ccccc1 [Phenformin] (partner 250 µM)
Procedure, shortened: as §1

Q: What does the source list for UMC-11?
A: relative viability ([1]; first compound 0.04 µM): 1.02; relative viability ([1]; first compound 0.1265 µM): 0.834; relative viability ([1]; first compound 0.4 µM): 1; relative viability ([1]; first compound 1.265 µM): 0.996; relative viability ([1]; first compound 4 µM): 0.894; relative viability ([2]; first compound 0.04 µM): 0.352; relative viability ([2]; first compound 0.1265 µM): 0.319; relative viability ([2]; first compound 0.4 µM): 0.333; relative viability ([2]; first compound 1.265 µM): 0.335; relative viability ([2]; first compound 4 µM): 0.349; relative viability (Salubrinal + Luminespib; first compound 0.08 µM): 1.06; relative viability (Salubrinal + Luminespib; first compound 0.253 µM): 0.835; relative viability (Salubrinal + Luminespib; first compound 0.8 µM): 1.14; relative viability (Salubrinal + Luminespib; first compound 2.53 µM): 1.05; relative viability (Salubrinal + Luminespib; first compound 8 µM): 1.14; relative viability (Salubrinal + Phenformin; first compound 0.08 µM): 0.354; relative viability (Salubrinal + Phenformin; first compound 0.253 µM): 0.354; relative viability (Salubrinal + Phenformin; first compound 0.8 µM): 0.335; relative viability (Salubrinal + Phenformin; first compound 2.53 µM): 0.332; relative viability (Salubrinal + Phenformin; first compound 8 µM): 0.299
